Data: PMC12059944, “Synthesis and Antileishmanial Evaluation of N-Phenyl-2-phenoxyacetamides Derived from Carvacrol” (ACS Omega, 2025)
Read-outs that look alike come from different tables or passages of the source.

Columns and labels:
[1] = Cytotoxicity assay in macrophage RAW 264.7 (resazurin); assay type: cell-based; details: mouse, RAW 264.7 macrophages, pH 7.2; RAW 264.7 cells, 200 to 1.56 μM, 48 h treatment, resazurin
Description: (§1) RAW 264.7 cells were cultured in Roswell Park Memorial Institute (RPMI) medium, pH 7.2, supplemented with 10% (v/v) heat-inactivated fetal bovine serum (FBS) (Gibco), 100 μg mL^–1 penicillin (Sigma), 2 g L^–1 sodium bicarbonate, 2 mM L-glutamine, and 25 mM HEPES, and maintained at 37 °C in a humidified incubator with 5% CO2 atmosphere.[27] The cells were then seeded into sterile 96-well plates at a density of 5 × 10^4 cells/well, followed by the addition of the compounds at a concentration of 10 μM for screening, and in a range of 200 μM to 1.56 μM for the determination of the 50% cytotoxic concentration (CC50). Controls included 1% DMSO and amphotericin B at 3.125 μg mL^–1, with 48 h of treatment. Cell viability was assessed using 1 mM resazurin, with subsequent readings performed on a Spectramax spectrophotometer at wavelengths of 570 and 600 nm.

Vero cells [2] = assay: Cytotoxicity assay in Vero cells (MTT); assay type: cell-based, African green monkey (Cercopithecus aethiops)
Description: (§2) The Vero cell (ATCC, CCL-81) was cultured in Dulbecco’s modified Eagle medium (DMEM), pH 7.3, supplemented with 10% FBS (v/v) and a penicillin/streptomycin solution (0.1 mg mL^–1/100 U mL^–1). The cells were incubated at 37 °C in a humidified atmosphere with 5% CO2. The MTT reduction assay (3-(4,5-dimethylthiazol-2-yl)-2,5-diphenyltetrazolium bromide) was adapted from Mosmann[43] to evaluate cytotoxicity. For this assay, 1 × 10^4 cells per well were seeded in 96-well plates and incubated overnight until reaching approximately 80% confluence. Wells were treated with different compound concentrations (500 to 7.8 μM) in triplicate. The culture medium was replaced with 0.5 mg mL^–1 MTT solution, and the plate was incubated for 3 h. The resulting formazan crystals were solubilized in DMSO, and absorbance was measured using a Spectramax spectrophotometer at a wavelength of 540 nm to assess cell viability.

[3] = Cytotoxicity assay in Vero cells (MTT); assay type: cell-based, African green monkey (Cercopithecus aethiops); details: African green monkey, Vero cells (ATCC CCL-81), pH 7.3, MTT, 1 × 10^4 cells per well, 500 to 7.8 μM
Description: as §2

RAW 264.7 macrophages = assay: Cytotoxicity assay in macrophage RAW 264.7 (resazurin); assay type: cell-based; details: RAW 264.7 cells, highest concentration (200 μM), 48 h
Description: as §1

[4] = system: L. braziliensis MHOM/BR/75/M2904; assay: In vitro infection of RAW 264.7 macrophages by L. braziliensis-GFP (leishmanicidal screening); assay type: cell-based; details: Leishmania braziliensis; for viability at 10 µM: RAW264.7, 48 h, read-out: parasite viability; for IC50: RAW264.7, suggested from the 10 μM screening, L. braziliensis in RAW 264.7 macrophages, 48 h
Description: L. braziliensis MHOM/BR/75/M2904 was cultured in Grace’s insect medium (pH 6.5) supplemented with 10% (v/v) heat-inactivated fetal bovine serum (FBS) (Gibco), 100 μg mL^–1 penicillin (Sigma), and 2 mM L-glutamine, maintained at 25 °C in a B.O.D. incubator. Using the stationary phase culture on the seventh day, 2.0 × 10^6Leishmania/well were transferred to a 96-well plate containing 1.0 × 10^5 preadhered macrophages/well, following an adapted infection protocol.[44] After applying the compounds at a concentration of 10 μM, 1% DMSO and amphotericin B (3.125 μg mL^–1) were used as controls. Treatments were conducted for 48 h, followed by macrophage lysis using 0.1% SDS solution, which was subsequently neutralized with complete Grace’s medium. To recover promastigote forms, the plate was incubated for 5 days. Fluorescence was measured using a Spectramax fluorometer, with excitation at 490 nm and emission at 520 nm.

[5] = system: murine peritoneal macrophages; parameters: method as in PMID 36375398; details: cited from earlier work
human monocyte cell line = system: human monocyte cell line; parameters: method as in PMID 32272211; details: 48 h treatment, cited from earlier work
Vero cells [6] = system: Vero cells; parameters: method as in PMID 29877104; details: 5 × 10^4 cells per well, cited from earlier work
L. amazonensis = system: L. amazonensis; parameters: method as in PMID 32272211; details: L. amazonensis amastigote stage, 48 h treatment, cited from earlier work
Vero cells [7] = system: Vero cells; parameters: method as in earlier work; details: 15 μg mL^–1 (equivalent to 16.23 μM), neutral red cytotoxicity assay; cited from earlier work
[8] = all tested concentrations (500 to 7.8 μM)
[9] = high concentrations (500 and 250 μM)
[10] = converted from μg mL^–1, read-out: CC50 (equivalent)

Question: With `Cc1ccc(C(C)C)cc1OCC(=O)Nc1ccc(F)cc1` [Compound 9, N-(4-Fluorophenyl)-2-(5-isopropyl-2-methylphenoxy)acetamide] as the compound, how does the CC50 at 48 h [1] read?
Answer: > 200 µM

Question: What about the survival rate (Vero cells [2]; [8]) of the same compound?
Answer: above 50%

Question: With `Cc1ccc(C(C)C)cc1OCC(=O)Nc1cccc(F)c1` [Compound 8, N-(3-Fluorophenyl)-2-(5-isopropyl-2-methylphenoxy)acetamide] as the compound, how does the CC50 at 48 h [1] read?
Answer: > 200 µM

Question: And the CC50 [3]?
Answer: 337 µM

Question: What about the survival rate (Vero cells [2]; [9]) of the same compound?
Answer: below 50%

Question: With `Cc1ccc(C(C)C)cc1OCC(=O)Nc1ccccc1Br` [Compound 4, N-(2-Bromophenyl)-2-(5-isopropyl-2-methylphenoxy)acetamide] as the compound, how does the CC50 at 48 h [1] read?
Answer: > 200 µM

Question: And the CC50 [3]?
Answer: 372 µM

Question: And the survival rate (Vero cells [2]; [9])?
Answer: below 50%

Question: For `Cc1ccc(C(C)C)cc1OCC(=O)Nc1cccc(Cl)c1` [Compound 2, N-(3-Chlorophenyl)-2-(5-isopropyl-2-methylphenoxy)acetamide], which CC50 at 48 h [1] is on record?
Answer: > 200 µM

Question: What about the survival rate (Vero cells [2]; [8]) of the same compound?
Answer: above 50%

Question: For `Cc1ccc(C(C)C)cc1OCC(=O)Nc1ccc(Br)cc1` [Compound 6, N-(4-Bromophenyl)-2-(5-isopropyl-2-methylphenoxy)acetamide], which CC50 at 48 h [1] is on record?
Answer: > 200 µM

Question: What about the “cell viability at the highest concentration compared to the control” value (from here on “cell viability … compared to the control”) (RAW 264.7 macrophages) of the same compound?
Answer: no significant differences

Question: What about the CC50 [3] of the same compound?
Answer: 182 µM

Question: What about the survival rate (Vero cells [2]; [9]) of the same compound?
Answer: below 50%

Question: Which results are given for `Cc1ccc(C(C)C)cc1OCC(=O)Nc1ccc(Cl)cc1` [Compound 3, N-(4-Chlorophenyl)-2-(5-isopropyl-2-methylphenoxy)acetamide]?
Answer: CC50 at 48 h [1]: > 200 µM; CC50 [3]: 449 µM; survival rate (Vero cells [2]; [9]): below 50%

Question: Which CC50 at 48 h [1] does the source give for `Cc1ccc(C(C)C)cc1OCC(=O)Nc1cccc(Br)c1` [Compound 5, N-(3-Bromophenyl)-2-(5-isopropyl-2-methylphenoxy)acetamide] here?
Answer: > 200 µM

Question: What about the “cell viability … compared to the control” value (RAW 264.7 macrophages) of the same compound?
Answer: no significant differences

Question: And the survival rate (Vero cells [2]; [8])?
Answer: above 50%

Question: What about the viability at 10 µM [4] of the same compound?
Answer: ~50%

Question: And the IC50 [4]?
Answer: ~10 µM

Question: For `Cc1ccc(C(C)C)cc1OCC(=O)Nc1ccccc1Cl` [Compound 1, N-(2-Chlorophenyl)-2-(5-isopropyl-2-methylphenoxy)acetamide], which CC50 at 48 h [1] is on record?
Answer: > 200 µM

Question: What about the “cell viability … compared to the control” value (RAW 264.7 macrophages) of the same compound?
Answer: no significant differences

Question: And the CC50 [3]?
Answer: 200 µM

Question: And the survival rate (Vero cells [2]; [9])?
Answer: below 50%

Question: Which CC50 at 48 h [1] does the source give for `Cc1ccc(C(C)C)cc1OCC(=O)Nc1ccccc1F` [Compound 7, N-(2-Fluorophenyl)-2-(5-isopropyl-2-methylphenoxy)acetamide] here?
Answer: > 200 µM

Question: And the “cell viability … compared to the control” value (RAW 264.7 macrophages)?
Answer: no significant differences

Question: What about the survival rate (Vero cells [2]; [8]) of the same compound?
Answer: above 50%

Question: What about the viability at 10 µM [4] of the same compound?
Answer: ~50%

Question: What about the IC50 [4] of the same compound?
Answer: ~10 µM

Question: For `Cc1ccc(C(C)C)cc1O` [carvacrol], which CC50 ([5]; 24 h treatment, converted from μg mL^–1, read-out: CC50 (equivalent)) is on record?
Answer: 505 µM

Question: What about the CC50 ([5]; 24 h treatment) of the same compound?
Answer: 75.91 μg mL^–1

Question: What about the CC50 ([5]; 72 h treatment, converted from μg mL^–1, read-out: CC50 (equivalent)) of the same compound?
Answer: 268 µM

Question: And the CC50 ([5]; 72 h treatment)?
Answer: 40.23 μg mL^–1

Question: And the CC50 (human monocyte cell line; [10])?
Answer: 427 µM

Question: And the CC50 (human monocyte cell line)?
Answer: 64.10 μg mL^–1

Question: And the CC50 (Vero cells [6]; [10])?
Answer: 572 µM

Question: And the CC50 (Vero cells [6])?
Answer: 86 ± 1.41 μg mL^–1

Question: What about the IC50 (L. amazonensis; converted from μg mL^–1, read-out: IC50 (equivalent)) of the same compound?
Answer: ~182 µM

Question: And the IC50 (L. amazonensis)?
Answer: approximately 27.40 μg mL^–1

Question: Which CC50 at 48 h [1] does the source give for `Cc1ccc(C(C)C)cc1OCC(=O)Nc1ccccc1` [Compound 10, 2-(5-Isopropyl-2-methylphenoxy)-N-phenylacetamide] here?
Answer: > 200 µM

Question: And the survival rate (Vero cells [2]; [8])?
Answer: above 50%

Question: With `C[C@@H]1[C@H](O)[C@@H](C)/C=C/C=C/C=C/C=C/C=C/C=C/C=C/[C@H](O[C@@H]2O[C@H](C)[C@@H](O)[C@H](N)[C@@H]2O)C[C@@H]2O[C@](O)(C[C@@H](O)C[C@@H](O)[C@H](O)CC[C@@H](O)C[C@@H](O)CC(=O)O[C@H]1C)C[C@H](O)[C@H]2C(=O)O` [amphotericin B] as the compound, how does the toxicity (Vero cells [7]) read?
Answer: over 70%
